Laboratory results from ChEMBL document CHEMBL1154993, “A cyclohexanonyl bromophenol from the red alga Symphyocladia latiuscula” (J Nat Prod, 2000).
pIC50: −log10 of the molar value.

What follows are compounds tested on Radical scavenging activity (assay: Antioxidant activity assessed as DPPH radical scavenging activity after 30 mins by spectrophotometer).
Format: functional
`O=C1CCCC[C@@H]1Cc1c(Br)c(O)c(O)c(Br)c1Br` [SYMPHYOKETONE] showed a pIC50 of 5.07.
With `O=C1O[C@H]([C@@H](O)CO)C(O)=C1O` [ASCORBIC ACID] the pIC50 was 4.82.
For `OCc1c(Br)c(O)c(O)c(Br)c1Br`, the pIC50 was 5.12.
